# System: P. falciparum 3D7 growth, pLDH absorbance
# Assay: P. falciparum 3D7 growth inhibition, dose response, strain 3D7 (AID 2305)
row,Structure (SMILES),IC50 [nM]
1,N#Cc1ccc2c(c1)CN(C1CCC(NC(=O)C3=Cc4cc(Cl)ccc4OC3)CC1)CCC2 (centres undefined),1330
2,CCOC(=O)Nc1cc(-c2csc(N=C(N)N)n2)cc([N+](=O)[O-])c1,820
3,Cc1noc(C)c1-c1ccc2c(Nc3ccccc3C(C)(C)C)c(C(=O)NCc3cccc4ccccc34)cnc2c1,940
4,CN(C)CCC(=O)c1ccccc1,330
5,FC(F)(F)c1cccc(CCNc2nccc(NCc3ccccc3Cl)n2)c1,1170
6,CCOc1ccc(C2CCN(CCCCNC(=O)c3ccc(NC(=O)c4ccc(Cl)cc4)cc3)CC2)c(CC)c1,790
7,CCN(CCCN1CCCCC1)c1cc(C)nc(Nc2cc(Cl)cc(Cl)c2)n1,290
8,Cc1cc(N2CCNCC2)c2cc(NC(=O)Nc3ccc(Cl)c(Cl)c3)ccc2n1,310
9,CCN(CC)CCNC(=O)c1ccc(NC(=O)c2cn(-c3ccccc3)nc2-c2cccs2)cc1,260
10,CCC(C)NC(=O)CN1CN(c2ccccc2)C2(CCN(C(=O)c3ccc4ccccc4c3)CC2)C1=O (centres undefined),630
11,Cc1cccc(CNc2nc(C)cc(N[C@@H](Cc3ccccc3)C(=O)NCCOc3ccccc3)n2)c1,910
12,Cc1c(Cc2ccc(F)cc2)c(Cl)nc2nc(N)nc(N)c12,860
13,COc1ccc2nccc(NN=Cc3ccc(F)cc3)c2c1,720
14,CCN(CCCN1CCCCC1)c1cc(C)nc(Nc2ccc(C)cc2Br)n1,170
15,Nc1nc(N)c2c(ccc3c2ccn3CCCC2CCCNC2)n1 (centres undefined),900
16,O=C(Cn1cnc2c(nnn2Cc2ccccc2F)c1=O)Nc1ccc2c(c1)OCCO2,950
17,CCOc1cc(C(=O)N[C@@H](Cc2ccccc2)[C@H](O)CNC(C)(C)c2cccc(OC)c2)cc(N2CCCS2(=O)=O)c1,220
18,CC(C)CC(=O)N(Cc1ccc(-c2ccc(CNC3Cc4ccccc4C3)cc2)cc1)C1CCNCC1,1170
19,CC[C@H]1CN2CC[C@H]1C[C@H]2[C@H](O)c1cc(-c2ccccc2C)nc2ccc(OC)cc12,200
20,Cc1cc(OCCCN2CCC(NS(=O)(=O)c3ccc(Cl)c(Cl)c3)CC2)c2ccccc2n1,900
21,COc1cccc(Nc2nnc(SCC(=O)NNC(=O)c3ccccn3)s2)c1,380
22,CN(C)CCOc1cccc(NC(=O)Nc2ccc(-c3ccccc3)cc2)c1,880
23,CCOC(=O)c1ccc(NC(=O)Nc2cccc(-c3ccc(-c4nc5c(C)cccc5[nH]4)s3)c2)cc1,140
24,CC(C)c1ccc(CN2CCC(NC(=O)c3ccc(-c4cccc(Cl)c4)s3)CC2)cc1,1430
25,COc1ccc(Nc2nccc(-c3ccc4c(-c5ccsc5)cnc(N)c4c3)n2)cc1,240

row,Structure (SMILES),IC50 [nM]
1,CN1CCC(C(=O)Nc2cccc(-c3cccc(-c4nc5ccc(F)cc5[nH]4)c3)c2)CC1,690
2,FC(F)(F)c1ccc2nc(-c3ccc(-c4ccc(CNCCN5CCNCC5)cc4)cc3)[nH]c2c1,1120
3,CCc1cn2c3c(cc(C(=O)N[C@@H](Cc4ccccc4)[C@H](O)CNCCOC)cc13)N(C)S(=O)(=O)CC2,950
4,CCOc1ccc2nc(C)cc(NN=Cc3cccc(F)c3)c2c1,740
5,O=C1C(c2ccccc2)=C(Nc2ccc([N+](=O)[O-])cc2)c2ccccc21,870
6,COc1ccc2[nH]cc(C3CCN(CCC4CCN(C(=O)/C=C/c5ccc(Cl)c(Cl)c5)CC4)CC3)c2c1,860
7,NOCCCOc1ccc(Cl)cc1,570
8,CC(Nc1cc(-c2ccccn2)nc(-c2ccccn2)n1)c1ccccc1 (centres undefined),450
9,O=C(/C=C/c1cccs1)NC1CCC(CN2CCC(c3c[nH]c4ccccc34)CC2)CC1 (centres undefined),1050
10,NC1=NC(CCc2ccccc2)N(c2ccc(Cl)cc2)C(N)=N1 (centres undefined),40
11,CCN(CC)CCNc1ccnc2ccc3ccccc3c12,220
12,N=C(N)c1ccc(Nc2nccc(Nc3nc(-c4ccccc4)cs3)n2)cc1,750
13,CCC1=C(C[C@H]2NCCc3cc(OC)c(OC)cc32)C[C@H]2c3cc(OC)c(OC)cc3CCN2C1,310
14,c1ccc2c(c1)CN(Cc1ccsc1)CC1(CCN(Cc3c[nH]c4cnccc34)CC1)O2,1150
15,CS(=O)(=O)c1ccc(CCNCc2ccc(-c3ccc(CN(C(=O)c4ccc(Cl)nc4)C4CCN(Cc5ccccc5)CC4)cc3)nc2)cc1,800
16,Cc1ccc(NC(=O)c2ccc(C(=O)NC3CCN(CC4CCCCC4)CC3)cc2)cc1,900
17,Fc1ccc2nc(-c3cccc(-c4cccc(CNCC5CCCO5)c4)c3)[nH]c2c1 (centres undefined),510
18,Cc1cc(=O)[nH]c(-n2nc(C)cc2NC(=O)CC(c2ccccc2)c2ccccc2)n1,1100
19,COc1ccc(CN2CCC(NCc3ccc(C(F)(F)F)cc3)CC2)cc1,920
20,c1cncc(CN2CCCN(c3ccc4c(c3)CCN(Cc3ccc(-c5ncc[nH]5)cc3)CC4)CC2)c1,750
21,Cc1cccc2[nH]c(-c3cccc(-c4ccc(NC(=O)C(C)CN(C)C)cc4)c3)nc12 (centres undefined),220
22,FC(F)(F)c1ccc2nc(-c3cccc(-c4ccc(CNCc5cnn(-c6ccccc6)n5)cc4)c3)[nH]c2c1,1330
23,Cc1cc(N[C@@H](Cc2ccccc2)C(=O)NCCc2ccccc2)nc(NCCc2ccccc2)n1,850
24,O=C(/C=C/c1ccc(Cl)c(Cl)c1)NC1CCN(Cc2ccc(O)cc2)C1 (centres undefined),950
25,Cc1cccc(N2CCN(C3CCC(NC(=O)c4cc5ccccc5[nH]4)CC3)CC2)c1C (centres undefined),610

row,Structure (SMILES),IC50 [nM]
1,N#Cc1cccc(NC(=O)C2=C(CCc3ccc4c(c3)OCO4)NC(=O)NC2c2cccc(C#N)c2)c1 (centres undefined),830
2,CCN=C1NC2=C(CC(C(C)(C)C)CC2)C2(CCC(C(C)(C)C)CC2)S1 (centres undefined),830
3,O=C(Cc1ccccc1)NC(c1ccccc1)c1ccc2cccnc2c1O (centres undefined),950
4,Cc1cccc(-c2nc3[nH]c(=O)cc(NC(=O)C(C)C)n3n2)c1,420
5,CCOC(=O)CNCC(=O)c1ccc(OCc2ccccc2)cc1,160
6,CC(=O)Nc1nc(C(=O)Nc2ccc(-c3cccc(-c4nc5ccc(C(F)(F)F)cc5[nH]4)c3)cc2)cs1,180
7,C[C@@H](COc1ccccc1)NCC(O)c1ccc([N+](=O)[O-])c(OCc2ccccc2)c1 (some centres undefined),990
8,O=C(N[C@@H](Cc1ccccc1)C(=O)NC1CCCc2ccccc21)c1ccc(O)c(-c2cccc(C(F)(F)F)c2)c1 (some centres undefined),1000
9,CCOc1cccc2nc(NCCCNCc3ccc(Cl)c(Cl)c3)cc(NCCCNCc3ccc(Cl)c(Cl)c3)c12,570
10,COc1ccc(NC(=O)Nc2nc3ccccc3s2)cc1N1CCN(C)CC1,700
11,O=C(NCCN1CCCC1)c1cccc(-c2ccc(-c3nc4ccc(F)cc4[nH]3)cc2)c1,720
12,O=C1C(C2CCC(c3ccc(Cl)cc3)CC2)=C2OCC3COC2(O3)c2ccccc21 (centres undefined),40
13,O=C(Nc1ccc(OC2CCN(Cc3ccc(F)cc3)CC2)c(Cl)c1)c1ccco1,300
14,COc1ccccc1C1CCN(C2CCC(NC(=O)/C=C/c3cc(F)cc(C(F)(F)F)c3)CC2)CC1 (centres undefined),900
15,O=C1COC2(CN1C1CCN(Cc3ccc(O)c(Cl)c3)C1)c1ccccc1-c1ccccc12 (centres undefined),960
16,O=C(CSc1nn(-c2ccccc2)c(=S)s1)c1c[nH]c2ccccc12,1090
17,COc1cc2nc(NCCc3ccccc3)nc(NCc3nccs3)c2cc1OC,530
18,CCCCCc1ccc(NC(=O)Nc2ccc(Cn3ncc(N4CCCNCC4)c(Cl)c3=O)cc2)cc1,1140
19,COc1c(C2CCN(CCCCNC(=O)c3cc(-c4ccc(C#N)cc4)n[nH]3)CC2)ccc2c1CCCC2,1160
20,N#Cc1ccc2c(c1)CCN(CCC1CCC(NC(=O)Nc3cnc4ccccc4c3)CC1)C2 (centres undefined),770
21,Cc1cc(NCCc2ccccc2)nc(/N=C(\N)Nc2ccccc2Cl)n1,790
22,Nc1c2c(nc3cc(NC(=O)c4ccc([N+](=O)[O-])cc4)ccc13)CCCC2,470
23,COc1ccc2nccc(N3CCC(O)(CCNCc4ccc5c(n4)NC(=O)CO5)CC3)c2n1,820
24,COc1c(C2CCN(CCCCNC(=O)c3ccc(-c4ccc(C(=O)C(F)(F)F)cc4)cc3)CC2)ccc2c1CCCC2,1100
25,CCc1c(CCNCC/C=C/CCNCCc2ccc(OC)c(OC)c2CC)ccc(OC)c1OC,770

row,Structure (SMILES),IC50 [nM]
1,Nc1c2c(nc3ccc(Oc4ccc(Cl)cc4)cc13)CCCC2,970
2,NC(=O)c1cnc2cc(-c3ccncc3)cc(Nc3ccc(NC(=O)C4CCCCC4)cc3)c2c1,230
3,Cc1c(C)n(C2CCCCC2)c2ncnc(OC3CCN(CC(=O)N4CCCC4)CC3)c12,1450
4,O=C(N[C@@H](CC1CCCCC1)C(=O)NC1CCCCC1)c1ccc(O)c(-c2cccc(C(F)(F)F)c2)c1,750
5,CC(Sc1nc(-c2ccccc2)c(-c2ccccc2)o1)C(=O)NC1CC1 (centres undefined),840
6,O=C1c2ccccc2C(=O)N1c1ccc(S(=O)(=O)N2CCOCC2)cc1,1260
7,Cc1cc(NCCC(=O)NCCc2ccccc2)nc(NCCc2ccc(F)cc2)n1,1080
8,c1ccc(COc2ccccc2COc2ccccc2-c2ccc3cccnc3n2)cc1,920
9,COc1ccc(CN2CCC(CN3CC4(OC3=O)c3ccccc3-c3ccccc34)C2)c(O)c1 (centres undefined),610
10,CN(CCCCNC(=O)/C=C/c1ccccc1)C1CC2(CCN(C(=O)OC(C)(C)C)CC2)c2ccccc21 (centres undefined),1140
11,Cc1ccc(Cn2nc(Cl)c(N3CCCNCC3)cc2=O)cc1NC(=O)Nc1ccc(-c2ccccc2)cc1,670
12,CCCCC1(c2ccc(F)cc2)NC(=O)N(CC(=O)c2cc(C)n(Cc3ccco3)c2C)C1=O (centres undefined),980
13,N#Cc1cccc(C(=O)NC2CCN(CCCCCNC(=O)/C=C/c3ccc(Cl)c(Cl)c3)CC2)c1,880
14,N#Cc1ccc(CN2CCC(Oc3ccc(NC(=O)c4cccs4)cc3Cl)CC2)cc1,580
15,Oc1ccccc1N1CCN(c2ccc(-c3nc4ccccc4[nH]3)cn2)CC1,1130
16,Brc1ccsc1-c1nc(NCCC(c2ccccc2)c2ccccc2)no1,1080
17,Cc1cccc2[nH]c(-c3ccc(-c4cccc(CNCc5ccccc5)c4)s3)nc12,740
18,CN(C)c1ccc(CN2CCC(CNC(=O)c3cc(-c4cccc(F)c4)cs3)C2)cc1 (centres undefined),1020
19,O=c1cc(NCc2ccccc2NCc2ccc(Cl)c(Cl)c2)[nH]c2ccccc12,840
20,O=C(Nc1ccc(Cl)cc1)N1CCN(C2CCCCC2)CC1,990
21,O=C(/C=C/c1ccc(Cl)c(Cl)c1)NCCCCCN1CCCC(C(=O)Nc2ccc(Cl)c(Cl)c2)C1 (centres undefined),780
22,CCC[C@]1(C)CSc2ccccc2[C@@H](c2ccccc2)N1,710
23,N=c1n(Cc2ccccc2)c2ccccc2n1CC(O)c1ccc(Cl)cc1 (centres undefined),880
24,O=C(Nc1cccc(CN2CCCN(Cc3ccccc3)CC2)c1)c1ccc(Cl)c(Cl)c1,900

# — PubChem BioAssay AID2305 (GlaxoSmithKline (GSK), 2010)
